Experiments:
Human IL-17AF = target: T1, Human IL-17AF (Homo sapiens, UniProt Q16552+Q96PD4); experiment: IL-17AF ELISA (competitive ELISA, IL-17AF/IL-17Ra receptor-ligand binding); details: human IL-17AF coated plate, human IL-17Ra, read-out: IC50, inhibitory activity of compounds on human IL-17AF
T1 construct: purchased Sino Biological Inc. CT047-H08H
T1 sequence (Q16552 24-155): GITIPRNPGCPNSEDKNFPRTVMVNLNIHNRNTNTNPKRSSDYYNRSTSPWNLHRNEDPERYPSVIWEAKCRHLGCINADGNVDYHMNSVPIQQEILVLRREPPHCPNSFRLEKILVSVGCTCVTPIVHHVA
T1 sequence (Q96PD4 31-163): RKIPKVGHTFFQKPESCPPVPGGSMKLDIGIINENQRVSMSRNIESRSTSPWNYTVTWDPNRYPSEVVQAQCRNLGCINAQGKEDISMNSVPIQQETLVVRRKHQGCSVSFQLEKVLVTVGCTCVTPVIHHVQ
Method: Experiment Example 2 IL-17AF ELISA
The inhibitory effects of human IL-17AF inhibitors on receptor-ligand binding were quantitatively determined by a competitive ELISA.
The ELISA was performed through the following steps.
Human IL-17AF (Sino Biological Inc., Cat #CT047-H08H) was diluted with coating buffer (50 mM PBS, pH 7.4) to reach a concentration of 0.625 μg/ml. 100 μL of the resulting solution was added to each well of a 96-well plate, and the plate was incubated at 37° C. for 30 min. In the blank group, 100 μL of coating buffer was added instead of the IL-17AF solution.
The plate was washed four times with 10 mM PBST (pH 7.4). 200 μL was used per well for each wash. After the final wash, the plate was tapped dry on absorbent paper.
Fresh 5% (w/v) skim milk solution was prepared before the experiment. For example, 5 grams of skim milk powder (Bio-Rad, Cat #170-6404) was completely dissolved in 100 mL of 10 mM PBST. 200 μL of the 5% (w/v) skim milk solution was added to each well, and the plate was incubated on a shaker at 25° C. for 30 min.
(S4) Preparation of 100× to-be-Tested Compound Solutions
During step (S3), the to-be-tested compound solutions were prepared. Each powdered compound was dissolved in dimethyl sulfoxide (DMSO) to reach a stock concentration of 10 mM. The to-be-tested compound solutions were then serially diluted four-fold with DMSO to obtain nine concentrations ranging from […].
(S6) Pre-Incubation of IL-17AF with to-be-Tested Compound Solutions
89 μL of PBST and 1 μL of each of the to-be-tested compound solutions were added to each well and mixed. The plate was pre-incubated at 25° C. for 10 min. In the blank group and the control group, 1 μL of DMSO was added instead of the to-be-tested compound solutions.
(S7) Incubation with Human IL-17Ra
10 μL of 100 nM IL-17Ra (Sino Biological Inc., Cat #10895-H03H) was added to each well, followed by incubation on a shaker at 25° C. for 30 min. The receptor solution was prepared in 10 mM PBST.
(S9) Incubation with Horseradish Peroxidase-Conjugated Antibody
100 μL of mouse anti-Fc tag HRP-conjugated antibody (Sino Biological Inc., Cat #10702-MM01T-H) was added to each well. The plate was incubated on a shaker at 25° C. for 30 min. The antibody was diluted with 5% (w/v) skim milk solution at 1:5,000 (v/v).
100 μL of TMB substrate solution (BD, Cat #555214) was added to each well. Substrate A and substrate B were freshly mixed at a volume ratio of 1:1 before use. The plate was incubated in the dark at 25° C. for 5-15 min.
(S12) Termination and Detection
The color reaction was terminated by addition of 2.5 M HCl. Absorbance was measured at 450 nm using a BMG PHERStar microplate reader.
(S13) Calculation of Half-Maximal Inhibitory Concentration (IC50)
The relative percent residual activity at each compound concentration was calculated according to Equation 1. The IC50 value of each test compound was then calculated in GraphPad 6 using the equation for log(inhibitor) versus normalized response with variable slope, as shown in Equation 2.
relative percent residual activity (%)=[(absorbance of sample−absorbance of blank group)/(absorbance of control group−absorbance of blank group)]%. Equation 1: […]
The compounds prepared in the Examples were tested for IL-17AF inhibitory activity according to the above method.

Human IL-17A [1] = target: T2, Human IL-17A (Homo sapiens, UniProt Q16552); experiment: IL-17A enzyme-linked immunosorbent assay (competitive ELISA, IL-17A/IL-17Ra receptor-ligand binding); parameters: purchased Sino Biological Inc. 12047-H07B; details: human IL-17A coated plate, human IL-17Ra, read-out: IC50, inhibitory activity of compounds on human IL-17A
T2 sequence (Q16552 20-155 limits assumed): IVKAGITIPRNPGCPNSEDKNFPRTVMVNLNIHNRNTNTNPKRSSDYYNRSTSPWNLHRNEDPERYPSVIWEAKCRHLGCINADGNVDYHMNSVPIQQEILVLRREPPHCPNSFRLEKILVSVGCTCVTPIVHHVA
Outline: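 Competitive ELISA with plates coated with human IL-17A at 0.2 μg/ml, blocked with 5% skim milk. Compound pre-incubated with IL-17A 10 min at 25 °C, then 16 nM IL-17Ra stock added for 30 min. Bound receptor detected by anti-Fc HRP/TMB, A450. IC50 from variable-slope fit of blank-corrected residual activity.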

Human IL-17A [2] = target: T2, Human IL-17A; experiment: Inhibition of human IL-17A protein-induced GROα/CXCL1 production in HT-29 cells; type: cell-based; parameters: purchased R&D 317-ILB; host or cells: added exogenously to HT-29 cells; details: 30 ng/mL human IL-17A protein, 48 h, GROα in supernatant by ELISA kit, read-out: Inhibitory IC50 of compounds on HT-29 cell GROα/CXCL1
Method: Experiment Example 3 Inhibition of Human IL-17A Protein-Induced GROα/CXCL1 Production in HT-29 Cells by Compounds
This assay was conducted to evaluate the ability of the compounds to inhibit human IL-17A protein-induced production of the chemokine growth-regulated oncogene alpha/C-X-C motif chemokine ligand 1 (GROα/CXCL1) in HT-29 cells.
Human colorectal adenocarcinoma epithelial HT-29 cells (Chengdu Zhongyuan Gongchuang Technology Co., Ltd.) were seeded into a 96-well plate at a density of 5×10^4 cells per well and were cultured overnight in an incubator at 37° C.
30 ng/mL of human IL-17A protein (R&D, #317-ILB) was mixed with gradient concentrations of the IL-17A small-molecule inhibitor, or with […] of a positive control IL-17A antibody (R&D, #AF-317-NA). These mixtures were incubated at 37° C. for 1 h and were then added to the plate. The mixtures were co-incubated with the HT-29 cells at 37° C. for 48 h. Thereafter, the level of GROα in the cell culture supernatant was determined using a GROα ELISA kit (Cisbio, #62HCXC1PEG).
The inhibitory activity of each compound was expressed as the half-maximal inhibitory concentration (IC50) for inhibition of GROα/CXCL1 production in HT-29 cells.

Compound | IC50 (Human IL-17AF) [µM] | IC50 (Human IL-17A [1]) [µM] | IC50 (Human IL-17A [2]) [µM]
Cc1[nH]nc2c1-c1cc(F)c(NC(=O)[C@@H](NC(=O)c3ccnn3C(C)C)C(C3CC3)C3CC3)cc1CN(C(C)C(F)(F)F)C(=O)C2 (single isomer, unassigned) [compound 186b] | 0.1 to 0.5 | ≤ 0.05 | –
[2H]C([2H])([2H])n1nccc1C(=O)N[C@H](C(=O)Nc1ccc2c(c1)COCCc1n[nH]c(C)c1-2)C(C1CC1)C1CC1 [compound 7] | 0.1 to 0.5 | 0.05 to 0.15 | –
CCn1nccc1C(=O)N[C@H](C(=O)Nc1ccc2c(c1)COCCc1n[nH]c(C)c1-2)C1CCCCC1 [compound 8] | 0.1 to 0.5 | 0.05 to 0.15 | –
CCn1nccc1C(=O)N[C@H](C(=O)Nc1ccc2c(c1)COCCc1n[nH]c(C)c1-2)C1c2ccc(F)cc2OCC12CC2 (some centres unmarked) [compound 9] | 0.1 to 0.5 | ≤ 0.05 | –
CCn1nccc1C(=O)N[C@H](C(=O)Nc1ccc2c(c1)COCCc1n[nH]c(C)c1-2)[C@H]1CC[C@H](C)CC1 [compound 10] | 0.1 to 0.5 | ≤ 0.05 | –
Cc1[nH]nc2c1-c1ccc(NC(=O)[C@@H](NC(=O)c3ccnn3C(C)C)C(C3CC3)C3CC3)cc1CN(C)CC2 [compound 24] | 0.1 to 0.5 | 0.05 to 0.15 | –
CCn1nccc1C(=O)N[C@H](C(=O)Nc1ccc2c(c1)CN(C)CCc1n[nH]c(C)c1-2)C(C1CC1)C1CC1 [compound 25] | 0.1 to 0.5 | 0.05 to 0.15 | –
Cc1[nH]nc2c1-c1ccc(NC(=O)[C@@H](NC(=O)c3ccnn3C)C(C3CC3)C3CC3)cc1CN(C)CC2 [compound 26] | 0.1 to 0.5 | 0.05 to 0.15 | –
CCc1nocc1C(=O)N[C@H](C(=O)Nc1cc2c(cc1F)-c1c(n[nH]c1C)CCOC2)C(C1CC1)C1CC1 [compound 33] | ≤ 0.1 | ≤ 0.05 | –
Cc1[nH]nc2c1-c1cc(F)c(NC(=O)[C@@H](NC(=O)c3conc3C(C)C)C(C3CC3)C3CC3)cc1COCC2 [compound 35] | 0.1 to 0.5 | ≤ 0.05 | –
CCn1nccc1C(=O)N[C@H](C(=O)Nc1cc2c(cc1F)-c1c(n[nH]c1C)CC(C)(C)OC2)C(C1CC1)C1CC1 [compound 117] | 0.1 to 0.5 | ≤ 0.05 | –
Cc1[nH]nc2c1-c1cc(F)c(NC(=O)[C@@H](NC(=O)c3ccnn3C)C(C3CC3)C3CC3)cc1CN(C)C(=O)C2 [compound 134] | 0.1 to 0.5 | 0.05 to 0.15 | –
COCCN1Cc2cc(NC(=O)[C@@H](NC(=O)c3ccnn3C(C)C)C(C3CC3)C3CC3)c(F)cc2-c2c(n[nH]c2C)CC1=O [compound 137] | ≤ 0.1 | – | 0.1 to 0.5
CCn1nccc1C(=O)N[C@H](C(=O)Nc1cc2c(cc1F)-c1c(n[nH]c1C)CC(=O)N(CCOC)C2)C(C1CC1)C1CC1 [compound 138] | ≤ 0.1 | – | 0.1 to 0.5
Cc1[nH]nc2c1-c1cc(F)c(NC(=O)[C@@H](NC(=O)c3ccnn3C(C)C)C(C3CC3)C3CC3)cc1CN(C)CC2 [compound 154] | 0.1 to 0.5 | ≤ 0.05 | –
Cc1[nH]nc2c1-c1cc(F)c(NC(=O)[C@@H](NC(=O)c3ccnn3C(C)C)C(C3CC3)C3CC3)cc1CN(C(C)C)CC2 [compound 162] | 0.1 to 0.5 | 0.05 to 0.15 | –
Cc1[nH]nc2c1-c1cnc(NC(=O)[C@@H](NC(=O)c3ccnn3C(C)C)C(C3CC3)C3CC3)cc1CN(Cc1ccccc1)CC2 [compound 184] | 0.1 to 0.5 | – | –
Cc1[nH]nc2c1-c1cc(F)c(NC(=O)[C@@H](NC(=O)c3ccnn3C(C)C)C(C3CC3)C3CC3)cc1CN(Cc1ccccc1)CC2 [compound 185] | 0.1 to 0.5 | – | –

Other lines, results leading:

IC50 (Human IL-17AF) [µM] | IC50 (Human IL-17A [1]) [µM] | IC50 (Human IL-17A [2]) [µM] | Compound
0.1 to 0.5 | ≤ 0.05 | – | CCn1nccc1C(=O)N[C@H](C(=O)Nc1cc2c(cc1F)-c1c(n[nH]c1C)CC(C)OC2)C(C1CC1)C1CC1 (single isomer, unassigned) [compound 119a]
0.1 to 0.5 | ≤ 0.05 | – | CCn1nccc1C(=O)N[C@H](C(=O)Nc1cc2c(cc1F)-c1c(n[nH]c1C)CC(C)OC2)C(C1CC1)C1CC1 (single isomer, unassigned) [compound 119b]
0.1 to 0.5 | ≤ 0.05 | – | Cc1[nH]nc2c1-c1cc(F)c(NC(=O)[C@@H](NC(=O)c3ccnn3C3CC3)C(C3CC3)C3CC3)cc1COCC2 [compound 19]
≤ 0.1 | ≤ 0.05 | – | Cc1[nH]nc2c1-c1cc(F)c(NC(=O)[C@@H](NC(=O)c3conc3C3CC3)C(C3CC3)C3CC3)cc1COCC2 [compound 34]
0.1 to 0.5 | ≤ 0.05 | – | COCCn1nccc1C(=O)N[C@H](C(=O)Nc1cc2c(cc1F)-c1c(n[nH]c1C)CCOC2)C(C1CC1)C1CC1 [compound 57]
0.1 to 0.5 | 0.05 to 0.15 | – | Cc1[nH]nc2c1-c1cc(F)c(NC(=O)[C@@H](NC(=O)c3ccnn3CC(C)(C)F)C(C3CC3)C3CC3)cc1COCC2 [compound 82]
0.1 to 0.5 | ≤ 0.05 | – | Cc1[nH]nc2c1-c1cc(F)c(NC(=O)[C@@H](NC(=O)c3ccnn3CC(F)(F)F)C(C3CC3)C3CC3)cc1COCC2 [compound 94]
0.1 to 0.5 | 0.05 to 0.15 | – | Cc1[nH]nc2c1-c1cc(F)c(NC(=O)[C@@H](NC(=O)c3ccnn3CCN3CCOCC3)C(C3CC3)C3CC3)cc1COCC2 [compound 97]
0.1 to 0.5 | – | – | COCCN1Cc2cc(NC(=O)[C@@H](NC(=O)c3ccnn3C3CC3)C(C3CC3)C3CC3)c(F)cc2-c2c(n[nH]c2C)CC1=O [compound 139]
0.1 to 0.5 | ≤ 0.05 | – | Cc1[nH]nc2c1-c1cc(F)c(NC(=O)[C@@H](NC(=O)c3ccc(C#N)n3C)C(C3CC3)C3CC3)cc1COCC2 [compound 227]

From US20260258050A1, “IMMUNOMODULATOR” (HITGEN INC., priority 2023, published 2026)
